Data from PubChem BioAssay AID1919010 (Molecular Pharmacology Branch, DTP, NCI, 2023).
Several values for one entry are separate records, joined by “and”; a condition that tells them apart may be missing. Equal values may be shown once.

Test system: Hs578T complex spheroid growth, percent test/control
Experiment: Anticancer human tumor Hs578T cell line growth inhibition [AhR];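 also: luminescent viability signal as a proxy for spheroid growth; spheroids exposed to agents for one week after three days of growth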
Conditions: for viability, T/C: stronger effect = lower value
Outline: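 Complex tumor spheroids co-cultured with HUVEC and human MSC stroma; AhR antagonists tested in combination with standard-of-care and investigational agents. Top concentration at or near clinical Cmax (else 10 microM), half-log dilutions; growth expressed as percent test/control.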

[1] = curve of first compound, second compound 0.1 µM
[2] = curve of first compound, second compound 0.316 µM
[3] = curve of first compound, second compound 1 µM
[4] = curve of first compound, second compound 3.16 µM
[5] = curve of first compound, second compound 10 µM
[6] = second compound 0.1 µM, first compound 0.0316 µM
[7] = second compound 0.1 µM, first compound 0.1 µM
[8] = second compound 0.1 µM, first compound 0.316 µM
[9] = second compound 0.1 µM, first compound 1 µM
[10] = second compound 0.316 µM, first compound 0.0316 µM
[11] = second compound 0.316 µM, first compound 0.1 µM
[12] = second compound 0.316 µM, first compound 0.316 µM
[13] = second compound 0.316 µM, first compound 1 µM
[14] = second compound 1 µM, first compound 0.0316 µM
[15] = second compound 1 µM, first compound 0.1 µM
[16] = second compound 1 µM, first compound 0.316 µM
[17] = second compound 1 µM, first compound 1 µM
[18] = second compound 3.16 µM, first compound 0.0316 µM
[19] = second compound 3.16 µM, first compound 0.1 µM
[20] = second compound 3.16 µM, first compound 0.316 µM
[21] = second compound 3.16 µM, first compound 1 µM
[22] = second compound 10 µM, first compound 0.0316 µM
[23] = second compound 10 µM, first compound 0.1 µM
[24] = second compound 10 µM, first compound 0.316 µM
[25] = second compound 10 µM, first compound 1 µM

| SMILES | IC50 [1] | IC50 [2] | IC50 [3] | IC50 [4] | IC50 [5] | viability, T/C [6] | viability, T/C [7] | viability, T/C [8] | viability, T/C [9] | viability, T/C [10] | viability, T/C [11] | viability, T/C [12] | viability, T/C [13] | viability, T/C [14] | viability, T/C [15] | viability, T/C [16] | viability, T/C [17] | viability, T/C [18] | viability, T/C [19] | viability, T/C [20] | further results |
| --- | --- | --- | --- | --- | --- | --- | --- | --- | --- | --- | --- | --- | --- | --- | --- | --- | --- | --- | --- | --- | --- |
| Nc1ncn(C2CC(O)C(CO)O2)c(=O)n1 (configuration not stated) + Cc1cncc(-c2nc(NCCc3c[nH]c4ccccc34)c3ncn(C(C)C)c3n2)c1 | > 1000 nM | > 1000 nM | > 1000 nM | > 1000 nM | < 3.16 nM | 111% | 112% | 108% | 106% | 119% | 111% | 106% | 102% | 112% | 108% | 112% | 108% | 82.6% | 74.4% | 77.4% | viability, T/C (second compound 0.1 µM, first compound 0.00316 µM): 105%; viability, T/C (second compound 0.1 µM, first compound 0.01 µM): 114%; viability, T/C (second compound 0.316 µM, first compound 0.00316 µM): 116%; viability, T/C (second compound 0.316 µM, first compound 0.01 µM): 110%; viability, T/C (second compound 1 µM, first compound 0.00316 µM): 109%; viability, T/C (second compound 1 µM, first compound 0.01 µM): 105%; viability, T/C (second compound 3.16 µM, first compound 0.00316 µM): 73.1%; viability, T/C (second compound 3.16 µM, first compound 0.01 µM): 76.2%; viability, T/C [21]: 75.7%; viability, T/C (second compound 10 µM, first compound 0.00316 µM): 6.02%; viability, T/C (second compound 10 µM, first compound 0.01 µM): 6.62%; viability, T/C [22]: 6.65%; viability, T/C [23]: 6.53%; viability, T/C [24]: 6.26%; viability, T/C [25]: 6.45% |
| COc1cc(Nc2ncc3c(n2)-c2ccc(Cl)cc2C(c2c(F)cccc2OC)=NC3)ccc1C(=O)O | – | – | – | – | – | – | – | – | – | – | – | – | – | – | – | – | – | – | – | – | viability, T/C (compound 0.0316 µM): 78.2% and 84.4% and 89.2%; viability, T/C (compound 0.1 µM): 92.6% and 82.2% and 94%; viability, T/C (compound 0.316 µM): 97% and 80.2% and 85.2%; viability, T/C (compound 1 µM): 96.8% and 87% and 87.8%; viability, T/C (compound 3.16 µM): 89.2% and 70.9% and 81%; viability, T/C (compound 10 µM): 47.3% and 34.7% and 44.9%; IC50 (curve of compound): 9280 nM and 6150 nM and 8470 nM |
| COc1cccc2c1C(=O)c1c(O)c3c(c(O)c1C2=O)CC(O)(C(=O)CO)CC3OC1CC(N)C(O)C(C)O1 (configuration not stated) + Cc1ccccc1N=Nc1ccc(NC(=O)c2ccnn2C)c(C)c1 | 240 nM | 279 nM | 373 nM | 353 nM | 368 nM | 89.8% | 72.5% | 44.7% | 10% | 67.9% | 64.2% | 48.3% | 9.72% | 80.4% | 75% | 56.3% | 14.4% | 68.7% | 63.2% | 54.5% | viability, T/C (second compound 0.1 µM, first compound 3.16 µM): 2.16%; viability, T/C (second compound 0.1 µM, first compound 10 µM): 2.24%; viability, T/C (second compound 0.316 µM, first compound 3.16 µM): 1.94%; viability, T/C (second compound 0.316 µM, first compound 10 µM): 2.15%; viability, T/C (second compound 1 µM, first compound 3.16 µM): 1.79%; viability, T/C (second compound 1 µM, first compound 10 µM): 2.15%; viability, T/C [21]: 10.2%; viability, T/C (second compound 3.16 µM, first compound 3.16 µM): 1.55%; viability, T/C (second compound 3.16 µM, first compound 10 µM): 1.85%; viability, T/C [22]: 65.2%; viability, T/C [23]: 64.4%; viability, T/C [24]: 56.6%; viability, T/C [25]: 6.88%; viability, T/C (second compound 10 µM, first compound 3.16 µM): 1.17%; viability, T/C (second compound 10 µM, first compound 10 µM): 1.93% |
